Laboratory results from patent US11078202B2, “β-lactamase inhibitor and use thereof” (priority 2018, dated 2021).
Counter-ions that a name gives are not always drawn.

Tests used:
Assay type in all cases: cell-based
[1] = system: Klebsiella pneumoniae XNWB 0005; assay: MIC assay of test compounds combined with ceftazidime (8 μg/mL); details: ceftazidime 8 μg/mL fixed
Summary of the method: (§1)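 Here, growth inhibition was scored visually following CLSI guidelines once plates containing compound, fixed-dose β-lactam and diluted inoculum had stood 16-20 h at 35±2 °C. Cells were taken from TSA colonies, brought to OD600 0.1-0.15 in 0.9% NaCl, then diluted 300-fold in 1.1×CAMHB.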

[2] = system: Klebsiella pneumoniae XNWB 0003; assay: as above; details: ceftazidime 8 μg/mL fixed
Summary of the method: as §1

[3] = system: Klebsiella pneumoniae XNWB 0004; assay: as above; details: ceftazidime 8 μg/mL fixed
Summary of the method: as §1

[4] = system: Klebsiella pneumoniae XNWB 0001; assay: as above; details: ceftazidime 8 μg/mL fixed
Summary of the method: as §1

[5] = system: Klebsiella pneumoniae XNWB 0006; assay: as above; details: ceftazidime 8 μg/mL fixed
Summary of the method: as §1

[6] = system: Acinetobacter baumannii XNWB 0007; assay: as above; details: ceftazidime 8 μg/mL fixed
Summary of the method: as §1

[7] = system: Klebsiella pneumoniae XNWB 0002; assay: as above; details: ceftazidime 8 μg/mL fixed
Summary of the method: as §1

[8] = system: Pseudomonas aeruginosa XNWB 0008; assay: as above; details: ceftazidime 8 μg/mL fixed
Summary of the method: as §1

[9] = system: Klebsiella pneumoniae XNWB 0005; assay: MIC assay of test compounds combined with imipenem (4 μg/mL); details: imipenem 4 μg/mL fixed
Summary of the method: as §1

[10] = system: Klebsiella pneumoniae XNWB 0003; assay: as above; details: imipenem 4 μg/mL fixed
Summary of the method: as §1

[11] = system: Klebsiella pneumoniae XNWB 0004; assay: as above; details: imipenem 4 μg/mL fixed
Summary of the method: as §1

[12] = system: Klebsiella pneumoniae XNWB 0001; assay: as above; details: imipenem 4 μg/mL fixed
Summary of the method: as §1

[13] = system: Klebsiella pneumoniae XNWB 0006; assay: as above; details: imipenem 4 μg/mL fixed
Summary of the method: as §1

[14] = system: Acinetobacter baumannii XNWB 0007; assay: as above; details: imipenem 4 μg/mL fixed
Summary of the method: as §1

[15] = system: Klebsiella pneumoniae XNWB 0002; assay: as above; details: imipenem 4 μg/mL fixed
Summary of the method: as §1

[16] = system: Pseudomonas aeruginosa XNWB 0008; assay: as above; details: imipenem 4 μg/mL fixed
Summary of the method: as §1

Structure (SMILES) | The minimum concentration of test compounds combined with ceftazidime (8 μg/mL) for bacteriostasis [1] | The minimum concentration of test compounds combined with ceftazidime (8 μg/mL) for bacteriostasis [2] | The minimum concentration of test compounds combined with ceftazidime (8 μg/mL) for bacteriostasis [3] | The minimum concentration of test compounds combined with ceftazidime (8 μg/mL) for bacteriostasis [4] | The minimum concentration of test compounds combined with ceftazidime (8 μg/mL) for bacteriostasis [5] | The minimum concentration of test compounds combined with ceftazidime (8 μg/mL) for bacteriostasis [6] | The minimum concentration of test compounds combined with ceftazidime (8 μg/mL) for bacteriostasis [7] | The minimum concentration of test compounds combined with ceftazidime (8 μg/mL) for bacteriostasis [8] | The minimum concentration of test compounds combined with imipenem (4 μg/mL) for bacteriostasis [9] | The minimum concentration of test compounds combined with imipenem (4 μg/mL) for bacteriostasis [10] | The minimum concentration of test compounds combined with imipenem (4 μg/mL) for bacteriostasis [11] | The minimum concentration of test compounds combined with imipenem (4 μg/mL) for bacteriostasis [12] | The minimum concentration of test compounds combined with imipenem (4 μg/mL) for bacteriostasis [13] | The minimum concentration of test compounds combined with imipenem (4 μg/mL) for bacteriostasis [14] | The minimum concentration of test compounds combined with imipenem (4 μg/mL) for bacteriostasis [15] | The minimum concentration of test compounds combined with imipenem (4 μg/mL) for bacteriostasis [16]
N=C(N)NC[C@@H](O)c1nnc([C@@H]2CC3(CC3)[C@@H]3CN2C(=O)N3OS(=O)(=O)O)o1 [Example 11, (1R,4S)-4-(5-((R)-2-guanidyl-1-hydroxyethyl)-1,3,4-oxadiazol-2-yl)-6-oxo-5,7-diazaspiro[bicyclo[3.2.1]octane-2,1′-cyclopropan]-7-yl sulfate] | A (A: <8 μg/mL) | A (A: <8 μg/mL) | A (A: <8 μg/mL) | A (A: <8 μg/mL) | A (A: <8 μg/mL) | C (C: 16-128 μg/mL) | A (A: <8 μg/mL) | C (C: 16-128 μg/mL) | A (A: <8 μg/mL) | A (A: <8 μg/mL) | A (A: <8 μg/mL) | A (A: <8 μg/mL) | A (A: <8 μg/mL) | B (B: 8-16 μg/mL) | A (A: <8 μg/mL) | B (B: 8-16 μg/mL)
N[C@H]1C[C@@H](c2cc([C@@H]3CC4(CC4)[C@@H]4CN3C(=O)N4OS(=O)(=O)O)no2)C1 [Example 26, (1R,4S)-4-(5-((1R,3R)-3-aminocyclobutyl)isoxazol-3-yl)-6-oxo-5,7-diazaspiro[bicycle [3.2.1]octane-2,1′-cyclopropan]-7-yl sulfate] | A (A: <8 μg/mL) | A (A: <8 μg/mL) | A (A: <8 μg/mL) | A (A: <8 μg/mL) | A (A: <8 μg/mL) | C (C: 16-128 μg/mL) | A (A: <8 μg/mL) | B (B: 8-16 μg/mL) | A (A: <8 μg/mL) | A (A: <8 μg/mL) | A (A: <8 μg/mL) | A (A: <8 μg/mL) | A (A: <8 μg/mL) | C (C: 16-128 μg/mL) | A (A: <8 μg/mL) | A (A: <8 μg/mL)
O=C1N2C[C@H](N1OS(=O)(=O)O)C1(CC1)C[C@H]2c1cc(COC2CNC2)on1 [Example 50, (1R,4S)-4-(5-((azetidin-3-yloxy)methyl)isoxazol-3-yl)-6-oxo-5,7-diazaspiro[bicycle [3.2.1]octane-2,1′-cyclopropan]-7-yl sulfate] | A (A: <8 μg/mL) | A (A: <8 μg/mL) | B (B: 8-16 μg/mL) | A (A: <8 μg/mL) | A (A: <8 μg/mL) | C (C: 16-128 μg/mL) | A (A: <8 μg/mL) | B (B: 8-16 μg/mL) | A (A: <8 μg/mL) | A (A: <8 μg/mL) | A (A: <8 μg/mL) | A (A: <8 μg/mL) | A (A: <8 μg/mL) | C (C: 16-128 μg/mL) | A (A: <8 μg/mL) | A (A: <8 μg/mL)
CNCCNC[C@H](O)c1nnc([C@@H]2CC3(CC3)[C@@H]3CN2C(=O)N3OS(=O)(=O)O)o1 [Example 30, (1R,4S)-4-(5-((S)-1-hydroxy-2-((2-(methylamino)ethyl)amino)ethyl)-1,3,4-oxadiazol-2-yl)-6-oxo-5,7-diazaspiro[bicyclo[3.2.1]octane-2,1′-cyclopropan]-7-yl sulfate] | B (B: 8-16 μg/mL) | A (A: <8 μg/mL) | B (B: 8-16 μg/mL) | B (B: 8-16 μg/mL) | A (A: <8 μg/mL) | C (C: 16-128 μg/mL) | A (A: <8 μg/mL) | C (C: 16-128 μg/mL) | A (A: <8 μg/mL) | A (A: <8 μg/mL) | A (A: <8 μg/mL) | A (A: <8 μg/mL) | A (A: <8 μg/mL) | B (B: 8-16 μg/mL) | A (A: <8 μg/mL) | C (C: 16-128 μg/mL)
NC1CC(c2cc([C@@H]3CC4(CC4)[C@@H]4CN3C(=O)N4OS(=O)(=O)O)no2)C1 (single isomer, unassigned) [Example 52] | B (B: 8-16 μg/mL) | B (B: 8-16 μg/mL) | B (B: 8-16 μg/mL) | A (A: <8 μg/mL) | A (A: <8 μg/mL) | C (C: 16-128 μg/mL) | A (A: <8 μg/mL) | C (C: 16-128 μg/mL) | A (A: <8 μg/mL) | A (A: <8 μg/mL) | A (A: <8 μg/mL) | A (A: <8 μg/mL) | A (A: <8 μg/mL) | C (C: 16-128 μg/mL) | A (A: <8 μg/mL) | A (A: <8 μg/mL)
N[C@H]1C[C@H](c2nnc([C@@H]3CC4(CC4)[C@@H]4CN3C(=O)N4OS(=O)(=O)O)o2)C1 [Example 16] | A (A: <8 μg/mL) | A (A: <8 μg/mL) | B (B: 8-16 μg/mL) | A (A: <8 μg/mL) | A (A: <8 μg/mL) | C (C: 16-128 μg/mL) | A (A: <8 μg/mL) | B (B: 8-16 μg/mL) | A (A: <8 μg/mL) | A (A: <8 μg/mL) | A (A: <8 μg/mL) | A (A: <8 μg/mL) | A (A: <8 μg/mL) | B (B: 8-16 μg/mL) | A (A: <8 μg/mL) | A (A: <8 μg/mL)
